Values joined by “and” are separate entries in the source; they are usually repeats but may differ in a detail not shown here. Equal entries are not always repeated. Results filed as inconclusive are left out.
Tested on: BDF1 mice, s.c. Lewis lung carcinoma, T/C %
Assay: NCI In Vivo Anticancer Drug Screen. Data for tumor model Lewis Lung Carcinoma (subcutaneous) in B6D2F1 (BDF1) mice
Description: The antitumor activity of compounds was measured in mice bearing transplantable tumors. Survival or tumor size were measured and the results are expressed as the measurement made in the treated group (T) divided by the measurement made in the vehicle treated control group (C). The tumor model used in this assay is Lewis Lung Carcinoma (subcutaneous) in B6D2F1 (BDF1) mice

[1] = endpoint: mean tumor weight, dose: 40.0 mg/kg/injection, schedule: Q01DX011 (ip), vehicle: other, higher = larger tumour
[2] = endpoint: mean tumor weight, dose: 160.0 mg/kg/injection, schedule: Q01DX011 (ip), vehicle: other, higher = larger tumour
[3] = endpoint: median survival time, dose: 50.0 mg/kg/injection, schedule: Q01DX009 (ip), vehicle: saline with Tween-80, higher = longer survival
[4] = endpoint: median survival time, dose: 100.0 mg/kg/injection, schedule: Q01DX009 (ip), vehicle: saline with Tween-80, higher = longer survival
[5] = endpoint: mean tumor weight, dose: 100.0 mg/kg/injection, schedule: Q01DX011 (ip), vehicle: saline, higher = larger tumour
[6] = endpoint: mean tumor weight, dose: 200.0 mg/kg/injection, schedule: Q01DX011 (ip), vehicle: saline, higher = larger tumour
[7] = endpoint: mean tumor weight, dose: 400.0 mg/kg/injection, schedule: Q01DX011 (ip), vehicle: saline, higher = larger tumour

In the case of Cc1ccccn1, the T/C (endpoint: mean tumor weight, dose: 62.5 mg/kg/injection, schedule: Q01DX011 (ip), vehicle: carboxymethylcellulose (CMC), higher = larger tumour) is reported as 93 % of control, the T/C (endpoint: mean tumor weight, dose: 125.0 mg/kg/injection, schedule: Q01DX011 (ip), vehicle: carboxymethylcellulose (CMC), higher = larger tumour) is reported as 112 % of control and the T/C (endpoint: mean tumor weight, dose: 250.0 mg/kg/injection, schedule: Q01DX011 (ip), vehicle: carboxymethylcellulose (CMC), higher = larger tumour) is reported as 94 % of control.

For CCCC(Sc1nc(N)nc2nc[nH]c12)C(=O)O (stereo not drawn), the T/C (endpoint: mean tumor weight, dose: 5.0 mg/kg/injection, schedule: Q01DX011 (ip), vehicle: other, higher = larger tumour) was 115 % of control, the T/C (endpoint: mean tumor weight, dose: 10.0 mg/kg/injection, schedule: Q01DX011 (ip), vehicle: other, higher = larger tumour) was 58 % of control and the T/C (endpoint: mean tumor weight, dose: 20.0 mg/kg/injection, schedule: Q01DX011 (ip), vehicle: other, higher = larger tumour) was 17 % of control. The T/C [1] was 49 % of control and 69 % of control, the T/C [2] was 64 % of control and the T/C (endpoint: mean tumor weight, dose: 320.0 mg/kg/injection, schedule: Q01DX011 (ip), vehicle: other, higher = larger tumour) was 50 % of control and 69 % of control. The T/C (endpoint: mean tumor weight, dose: 640.0 mg/kg/injection, schedule: Q01DX011 (ip), vehicle: other, higher = larger tumour) was 48 % of control.

CC[C@H]1CN2CCc3cc(OC)c(OC)cc3[C@@H]2C[C@@H]1C[C@H]1NCCc2c1[nH]c1ccc(O)cc21 was tested, and the T/C (endpoint: median survival time, dose: 0.25 mg/kg/injection, schedule: Q01DX009 (ip), vehicle: Klucel (hydroxypropylcellulose) (HPC), higher = longer survival) was 103 % of control, the T/C (endpoint: median survival time, dose: 0.5 mg/kg/injection, schedule: Q01DX009 (ip), vehicle: Klucel (hydroxypropylcellulose) (HPC), higher = longer survival) was 93 % of control and the T/C (endpoint: median survival time, dose: 1.0 mg/kg/injection, schedule: Q01DX009 (ip), vehicle: Klucel (hydroxypropylcellulose) (HPC), higher = longer survival) was 90 % of control.

In the case of COc1cc(NC(=O)CN(CCCl)CCCl)cc(OC)c1OC, the T/C [3] is reported as 88 % of control, the T/C [4] is reported as 98 % of control and the T/C (endpoint: median survival time, dose: 200.0 mg/kg/injection, schedule: Q01DX009 (ip), vehicle: saline with Tween-80, higher = longer survival) is reported as 94 % of control.

CCCCOP(=O)(OCCCC)c1ccccc1 was tested, and the T/C (endpoint: mean tumor weight, dose: 104.0 mg/kg/injection, schedule: Q01DX011 (ip), vehicle: other, higher = larger tumour) was 93 % of control and the T/C (endpoint: mean tumor weight, dose: 233.0 mg/kg/injection, schedule: Q01DX011 (ip), vehicle: other, higher = larger tumour) was 66 % of control.

In the case of SCc1ccccn1, the T/C (endpoint: mean tumor weight, dose: 37.8 mg/kg/injection, schedule: Q01DX011 (ip), vehicle: carboxymethylcellulose (CMC), higher = larger tumour) is reported as 95 % of control, the T/C (endpoint: mean tumor weight, dose: 75.5 mg/kg/injection, schedule: Q01DX011 (ip), vehicle: carboxymethylcellulose (CMC), higher = larger tumour) is reported as 97 % of control and the T/C (endpoint: mean tumor weight, dose: 150.0 mg/kg/injection, schedule: Q01DX011 (ip), vehicle: carboxymethylcellulose (CMC), higher = larger tumour) is reported as 90 % of control.

O=c1[nH]c(=O)n(C2CC(O)C(CO)O2)cc1F (stereo not drawn) was tested, and the T/C (endpoint: mean tumor weight, dose: 10.0 mg/kg/injection, schedule: Q01DX011 (ip), vehicle: saline, higher = larger tumour) was 82 % of control, the T/C (endpoint: mean tumor weight, dose: 20.0 mg/kg/injection, schedule: Q01DX011 (ip), vehicle: saline, higher = larger tumour) was 57 % of control and the T/C (endpoint: mean tumor weight, dose: 26.0 mg/kg/injection, schedule: Q01DX011 (ip), vehicle: saline, higher = larger tumour) was 45 % of control. The T/C [1] was 17 % of control and 23 % of control, the T/C (endpoint: mean tumor weight, dose: 40.0 mg/kg/injection, schedule: Q01DX011 (ip), vehicle: saline, higher = larger tumour) was 25 % of control and 27 % of control and the T/C (endpoint: mean tumor weight, dose: 60.0 mg/kg/injection, schedule: Q01DX011 (ip), vehicle: saline, higher = larger tumour) was 17 % of control and 23 % of control. For the same compound, the T/C (endpoint: mean tumor weight, dose: 80.0 mg/kg/injection, schedule: Q01DX011 (ip), vehicle: other, higher = larger tumour) was 10 % of control, the T/C (endpoint: mean tumor weight, dose: 80.0 mg/kg/injection, schedule: Q01DX011 (ip), vehicle: saline, higher = larger tumour) was 18 % of control and the T/C (endpoint: mean tumor weight, dose: 120.0 mg/kg/injection, schedule: Q01DX011 (ip), vehicle: saline, higher = larger tumour) was 1 % of control. The T/C [2] was 4 % of control, the T/C (endpoint: median survival time, dose: 25.0 mg/kg/injection, schedule: Q01DX009 (ip), vehicle: saline, higher = longer survival) was 90 % of control and 110 % of control and 114 % of control and the T/C (endpoint: median survival time, dose: 36.0 mg/kg/injection, schedule: Q01DX011 (ip), vehicle: saline, higher = longer survival) was 116 % of control. The T/C [3] was 116 % of control, the T/C (endpoint: median survival time, dose: 50.0 mg/kg/injection, schedule: Q01DX009 (ip), vehicle: saline, higher = longer survival) was 92 % of control and 98 % of control and the T/C (endpoint: median survival time, dose: 80.0 mg/kg/injection, schedule: Q01DX011 (ip), vehicle: saline, higher = longer survival) was 104 % of control. For the same compound, the T/C [4] was 95 % of control, the T/C (endpoint: median survival time, dose: 119.0 mg/kg/injection, schedule: Q01DX011 (ip), vehicle: saline, higher = longer survival) was 94 % of control and the T/C (endpoint: median tumor weight (est.), dose: 25.0 mg/kg/injection, schedule: Q01DX009 (ip), vehicle: saline with Tween-80, higher = larger tumour) was 72 % of control. For the same compound, the T/C (endpoint: median tumor weight (est.), dose: 50.0 mg/kg/injection, schedule: Q01DX009 (ip), vehicle: saline with Tween-80, higher = larger tumour) was 66 % of control and the T/C (endpoint: median tumor weight (est.), dose: 100.0 mg/kg/injection, schedule: Q01DX009 (ip), vehicle: saline with Tween-80, higher = larger tumour) was 32 % of control.

For CN(C)Cc1c[nH]c2ccccc12, the T/C (endpoint: mean tumor weight, dose: 26.6 mg/kg/injection, schedule: Q01DX011 (ip), vehicle: carboxymethylcellulose (CMC), higher = larger tumour) was 94 % of control, the T/C (endpoint: mean tumor weight, dose: 40.0 mg/kg/injection, schedule: Q01DX011 (ip), vehicle: carboxymethylcellulose (CMC), higher = larger tumour) was 70 % of control and the T/C (endpoint: mean tumor weight, dose: 60.0 mg/kg/injection, schedule: Q01DX011 (ip), vehicle: carboxymethylcellulose (CMC), higher = larger tumour) was 62 % of control. The T/C (endpoint: mean tumor weight, dose: 90.0 mg/kg/injection, schedule: Q01DX011 (ip), vehicle: carboxymethylcellulose (CMC), higher = larger tumour) was 57 % of control.

For CCCCCCCCCCCCCS, the T/C (endpoint: mean tumor weight, dose: 66.0 mg/kg/injection, schedule: Q01DX011 (ip), vehicle: saline, higher = larger tumour) was 106 % of control, the T/C [5] was 77 % of control and the T/C (endpoint: mean tumor weight, dose: 150.0 mg/kg/injection, schedule: Q01DX011 (ip), vehicle: saline, higher = larger tumour) was 91 % of control.

For c1cn[nH]c1, the T/C (endpoint: mean tumor weight, dose: 20.0 mg/kg/injection, schedule: Q01DX011 (ip), vehicle: water, higher = larger tumour) was 54 % of control, the T/C (endpoint: mean tumor weight, dose: 40.0 mg/kg/injection, schedule: Q01DX011 (ip), vehicle: water, higher = larger tumour) was 45 % of control and the T/C (endpoint: mean tumor weight, dose: 80.0 mg/kg/injection, schedule: Q01DX011 (ip), vehicle: water, higher = larger tumour) was 32 % of control.

For O=C(CCBr)N1CCN(C(=O)CCBr)CC1, the T/C (endpoint: median survival time, dose: 2.5 mg/kg/injection, schedule: Q01DX009 (ip), vehicle: saline with Tween-80, higher = longer survival) was 105 % of control, the T/C (endpoint: median survival time, dose: 5.0 mg/kg/injection, schedule: Q01DX009 (ip), vehicle: saline with Tween-80, higher = longer survival) was 105 % of control and the T/C (endpoint: median survival time, dose: 10.0 mg/kg/injection, schedule: Q01DX009 (ip), vehicle: saline with Tween-80, higher = longer survival) was 109 % of control. For the same compound, the T/C (endpoint: median survival time, dose: 20.0 mg/kg/injection, schedule: Q01DX009 (ip), vehicle: saline with Tween-80, higher = longer survival) was 109 % of control, the T/C (endpoint: median survival time, dose: 40.0 mg/kg/injection, schedule: Q01DX009 (ip), vehicle: saline with Tween-80, higher = longer survival) was 106 % of control and the T/C (endpoint: median survival time, dose: 80.0 mg/kg/injection, schedule: Q01DX009 (ip), vehicle: saline with Tween-80, higher = longer survival) was 102 % of control.

Oc1cc(O)c2c(c1)O[C@H](c1ccc(O)c(O)c1)[C@@H](O)C2 was tested, and the T/C (endpoint: mean tumor weight, dose: 50.0 mg/kg/injection, schedule: Q01DX011 (ip), vehicle: saline, higher = larger tumour) was 76 % of control, the T/C [5] was 94 % of control and the T/C [6] was 72 % of control. The T/C [7] was 74 % of control.

For O=C1OC(C(O)CO)C(O)=C1O (stereo not drawn), the T/C (endpoint: median survival time, dose: 1.0 mg/kg/injection, schedule: Q02DX009 (ip), vehicle: saline, higher = longer survival) was 113 % of control, the T/C (endpoint: median survival time, dose: 1000.0 mg/kg/injection, schedule: Q02DX009 (ip), vehicle: saline, higher = longer survival) was 87 % of control and the T/C (endpoint: median survival time, dose: 10000.0 mg/kg/injection, schedule: Q02DX009 (ip), vehicle: saline, higher = longer survival) was 10 % of control.

In the case of O=[N+]([O-])c1cccc([N+](=O)[O-])c1Cl, the T/C (endpoint: mean tumor weight, dose: 37.0 mg/kg/injection, schedule: Q01DX011 (ip), vehicle: other, higher = larger tumour) is reported as 116 % of control and the T/C (endpoint: mean tumor weight, dose: 55.0 mg/kg/injection, schedule: Q01DX011 (ip), vehicle: other, higher = larger tumour) is reported as 89 % of control.

In the case of CN[C@H]1CCc2cc(OC)c(OC)c(OC)c2-c2ccc(OC)c(=O)cc21, the T/C (endpoint: mean tumor weight, dose: 0.63 mg/kg/injection, schedule: Q01DX011 (ip), vehicle: saline, higher = larger tumour) is reported as 59 % of control, the T/C (endpoint: mean tumor weight, dose: 1.25 mg/kg/injection, schedule: Q01DX011 (ip), vehicle: saline, higher = larger tumour) is reported as 85 % of control and the T/C (endpoint: mean tumor weight, dose: 2.5 mg/kg/injection, schedule: Q01DX011 (ip), vehicle: saline, higher = larger tumour) is reported as 61 % of control. For the same compound, the T/C (endpoint: mean tumor weight, dose: 5.0 mg/kg/injection, schedule: Q01DX011 (ip), vehicle: saline, higher = larger tumour) was 58 % of control and 72 % of control and the T/C (endpoint: mean tumor weight, dose: 7.0 mg/kg/injection, schedule: Q01DX011 (ip), vehicle: saline, higher = larger tumour) was 33 % of control.

O=C(Nc1ccc(C2=NCCN2)cc1)c1cc(Cl)cc(C(=O)Nc2ccc(C3=NCCN3)cc2)c1 was tested, and the T/C [5] was 93 % of control, the T/C [6] was 66 % of control and the T/C [7] was 51 % of control. For the same compound, the T/C (endpoint: mean tumor weight, dose: 800.0 mg/kg/injection, schedule: Q01DX011 (ip), vehicle: saline, higher = larger tumour) was 21 % of control.

O=NN(CCF)C(=O)NC1CSCSC1 was tested, and the T/C (endpoint: median tumor weight (est.), dose: 14.0 mg/kg/injection, schedule: Q01DX001 (ip), vehicle: saline with Tween-80, higher = larger tumour) was 61 % of control, the T/C (endpoint: median tumor weight (est.), dose: 27.0 mg/kg/injection, schedule: Q01DX001 (ip), vehicle: saline with Tween-80, higher = larger tumour) was 45 % of control and the T/C (endpoint: median tumor weight (est.), dose: 41.0 mg/kg/injection, schedule: Q01DX001 (ip), vehicle: saline with Tween-80, higher = larger tumour) was 8 % of control.
